Like-named read-outs stand apart in the source and are kept apart here.
Assays:
[1] = tested on: rat models of hypertensive renal disease; test: Pharmacodynamic study in DOCA-NaCl induced hypertensive renal disease model; format: in vivo, male SD rats
From the text: PD and pharmacodynamic studies on the compounds of the present disclosure in male SD rat models of hypertension induced with deoxycorticosterone acetate-sodium chloride (DOCA-NaCl).
Prior to commencing the procedure, 7-8 weeks old male SD rats were allowed one week acclimatization. On the day of surgery, the table of the surgical area was disinfected with a disinfectant, and the rats were anesthetized with 2%-5% isoflurane and fixed on the table. The abdominal hair was removed and the surgical skin was disinfected. The skin and abdominal wall were cut open to expose the right kidney. The arteries and veins near the renal hilum were ligated. After it was confirmed that there were no bleeding points, the renal blood vessels and surrounding ligaments were bluntly separated and the right kidney was removed. After it was confirmed that there were no bleeding points, the abdominal wall muscle and skin were sutured. After the rats woke up, they were returned to the cage and observed. The rats were injected subcutaneously with meloxicam injection once a day for 3 consecutive days for pain relief.
One week after unilateral kidney removal, the animals were randomly divided into vehicle group, low dose group and high dose group according to body weight/blood pressure. The drinking water of animals in all groups was changed to an aqueous solution containing 1% sodium chloride+0.2% potassium chloride. […]

[2] = In vivo PK studies, intravenous injection; details: rat, plasma, male SD rats; for Vd: read-out: Vdss
Description: Male SD rats were used as test animals. After intravenous injection, the blood drug concentration of the compounds was determined and the pharmacokinetic behavior was evaluated.
Three healthy adult male SD rats were selected. The test compounds were mixed with an appropriate amount of a vehicle of the intravenous injection group and prepared into a 0.5 or 1 mg/mL clear solution, which was filtered with a […] microporous filter membrane for later use. After intravenous administration to the rats at 0.5 or 1 mg/kg, whole blood was collected at 0.083, 0.25, 0.5, 1, 2, 4, 8, 24 hours after administration and placed in EDTA-K2 anticoagulant tubes, and the mixture was vortexed thoroughly and centrifuged at 3200 g, 4° C. for 10 minutes to obtain the plasma. The LC-MS/MS method was used to determine the drug concentration, and the Phoenix WinNonlin 6.3 pharmacokinetic software was used to calculate the relevant pharmacokinetic parameters by the non-compartmental model linear logarithmic trapezoidal method. • Vehicle 1:10% DMSO/10% Kolliphor® HS 15/80% (20% sulfobutyl-β-cyclodextrin); • Vehicle 2:10% DMSO+20% polyoxyethylenated castor oil+70% water; • Vehicle 3:5% DMSO+10% Kolliphor® HS 15+85% physiological saline; • Vehicle 4:10% DMSO+60% polyethylene glycol 400+30% (10% aqueous hydroxypropyl-β-cyclodextrin solution).

[3] = Rat group tissue distribution test; format: in vivo, SD male rats; details: intragastric, SD rats, n = 3; for concentration at 1 h / concentration at 4 h / concentration at 12 h: male, Sprague Dawley, rat, oral, read-out: Average drug concentration
From the text: In this study, SD male rats were selected as the test animals, and the LC/MS/MS method was used to quantitatively determine the drug concentration at different time points in the plasma, cerebrospinal fluid, brain, liver, and kidney of the test compounds administered orally to evaluate the tissue distribution of the test drugs in the rats.
Experimental materials: Sprague Dawley (SD) rats (male, 200-300 g, 7-10 weeks old, Beijing Vital River).
A clear solution or suspension of the test compounds was administered intragastrically into SD rats (fasted) (vehicle: 5% DMSO/10% Kolliphor® HS 15/85% water). […] The mixture was vortexed thoroughly and centrifuged at 3200 g, 4° C. for 10 minutes to obtain the plasma. The cerebrospinal fluid (about 0.02 mL) was collected. The brain, liver, and kidney were collected, rinsed with pre-cooled physiological saline, dried with paper, and then homogenated in a ratio of 1:4 (1 g of tissue: 4 mL of 15 mM phosphate-buffered physiological saline/MeOH (2:1)). The LC-MS/MS method was used to determine the drug concentration, and the Phoenix WinNonlin 6.3 pharmacokinetic software was used to calculate the relevant pharmacokinetic parameters by the non-compartmental model linear logarithmic trapezoidal method.

With `O=c1[nH]ncc(N2CCc3c(ncnc3Sc3ccc(F)cc3C(F)(F)F)C2)c1Cl` [Compound WX002] as the molecule, how does the urinary albumin level ([1]; 30 mg/kg and 60 mg/kg intragastrically once a day for 28 days, vs vehicle control group) read?
Its urinary albumin level is “significantly reduce”.

What about the “expression of urinary Rac1” value ([1]; low and high dose, intragastrically once a day for 28 days, vs vehicle group) of the same molecule?
Its value is “dose-dependently reduce”.

What about the AUC(0-t) ([2]; 1 mg/kg, 1 mpk) of the same molecule?
The AUC(0-t) was 1.97 µM·h.

And the clearance ([2]; 1 mg/kg, 1 mpk)?
Its clearance is 18.2 mL/min/kg.

What about the half-life ([2]; 1 mg/kg, 1 mpk) of the same molecule?
The half-life was 1.83 h.

What about the Vd ([2]; 1 mg/kg, 1 mpk) of the same molecule?
The Vd was 2.28 L/kg.

Which AUC(0-t) ([2]; 1 mg/kg, 1 mpk) does the source give for `O=c1[nH]ncc(N2CCc3c(ncnc3Oc3ccc(F)cc3Br)C2)c1Cl` [Compound WX004] here?
The AUC(0-t) was 8.26 µM·h.

And the clearance ([2]; 1 mg/kg, 1 mpk)?
Its clearance is 4.6 mL/min/kg.

What about the half-life ([2]; 1 mg/kg, 1 mpk) of the same molecule?
The half-life was 2.02 h.

And the Vd ([2]; 1 mg/kg, 1 mpk)?
The Vd was 0.77 L/kg.

Which AUC(0-t) ([2]; 0.5 mg/kg, 0.5 mpk) does the source give for `O=c1[nH]ncc(N2CCc3c(ncnc3Oc3ccc(F)cc3C(F)(F)F)C2)c1Br` [Compound WX009] here?
Its AUC(0-t) is 2.38 µM·h.

What about the clearance ([2]; 0.5 mg/kg, 0.5 mpk) of the same molecule?
Its clearance is 6.52 mL/min/kg.

And the half-life ([2]; 0.5 mg/kg, 0.5 mpk)?
The half-life was 2.59 h.

What about the Vd ([2]; 0.5 mg/kg, 0.5 mpk) of the same molecule?
Its Vd is 1.37 L/kg.

Which results are given for `CC(F)(F)c1cc(F)ccc1Oc1ncnc2c1CCN(c1cn[nH]c(=O)c1Cl)C2` [Compound WX010]?
AUC(0-t) ([2]; 1 mg/kg, 1 mpk): 4.75 µM·h; clearance ([2]; 1 mg/kg, 1 mpk): 7.81 mL/min/kg; half-life ([2]; 1 mg/kg, 1 mpk): 1.73 h; Vd ([2]; 1 mg/kg, 1 mpk): 1.13 L/kg

What does the source list for `COCc1nc2c(c(Oc3ccc(F)cc3C(F)(F)F)n1)CCN(c1cn[nH]c(=O)c1Cl)C2` [Compound WX011]?
AUC(0-t) ([2]; 1 mg/kg, 1 mpk): 4.05 µM·h; clearance ([2]; 1 mg/kg, 1 mpk): 8.29 mL/min/kg; half-life ([2]; 1 mg/kg, 1 mpk): 1.46 h; Vd ([2]; 1 mg/kg, 1 mpk): 1.06 L/kg

With `O=c1[nH]ncc(N2CCc3c(nc(CO)nc3Sc3ccc(F)cc3C(F)(F)F)C2)c1Cl` [Compound WX012] as the molecule, how does the Average drug concentration ([3]; Brain, 12 h) read?
The Average drug concentration was “BQL”.

What about the concentration at 1 h ([3]; Brain) of the same molecule?
The concentration at 1 h was 282 nM.

What about the concentration at 4 h ([3]; Brain) of the same molecule?
The concentration at 4 h was 373 nM.

What about the concentration at 1 h ([3]; Kidney) of the same molecule?
The concentration at 1 h was 2630 nM.

What about the concentration at 4 h ([3]; Kidney) of the same molecule?
The concentration at 4 h was 3440 nM.

What about the concentration at 12 h ([3]; Kidney, 12 h) of the same molecule?
Its concentration at 12 h is 276 nM.

What about the concentration at 1 h ([3]; Liver) of the same molecule?
The concentration at 1 h was 5120 nM.

What about the concentration at 4 h ([3]; Liver) of the same molecule?
The concentration at 4 h was 5820 nM.

What about the concentration at 12 h ([3]; Liver, 12 h) of the same molecule?
The concentration at 12 h was 570 nM.

And the concentration at 1 h ([3]; Plasma)?
Its concentration at 1 h is 773 nM.

What about the concentration at 4 h ([3]; Plasma) of the same molecule?
Its concentration at 4 h is 1080 nM.

And the concentration at 12 h ([3]; Plasma, 12 h)?
The concentration at 12 h was 82.7 nM.

And the AUC(0-t) ([2]; 1 mg/kg, 1 mpk)?
Its AUC(0-t) is 3.33 µM·h.

What about the clearance ([2]; 1 mg/kg, 1 mpk) of the same molecule?
Its clearance is 10.1 mL/min/kg.

And the half-life ([2]; 1 mg/kg, 1 mpk)?
Its half-life is 2.31 h.

What about the Vd ([2]; 1 mg/kg, 1 mpk) of the same molecule?
Its Vd is 1.62 L/kg.

Which results are given for `Nc1nc2c(c(Sc3ccc(F)cc3C(F)(F)F)n1)CCN(c1cn[nH]c(=O)c1Cl)C2` [Compound WX013]?
concentration at 1 h ([3]; Brain): 139 nM; concentration at 4 h ([3]; Brain): 197 nM; concentration at 12 h ([3]; Brain, 12 h): 86 nM; concentration at 1 h ([3]; Kidney): 1260 nM; concentration at 4 h ([3]; Kidney): 1470 nM; concentration at 12 h ([3]; Kidney, 12 h): 590 nM; concentration at 1 h ([3]; Liver): 2610 nM; concentration at 4 h ([3]; Liver): 3360 nM; concentration at 12 h ([3]; Liver, 12 h): 945 nM; concentration at 1 h ([3]; Plasma): 536 nM; concentration at 4 h ([3]; Plasma): 716 nM; concentration at 12 h ([3]; Plasma, 12 h): 272 nM; AUC(0-t) ([2]; 1 mg/kg, 1 mpk): 9.13 µM·h; clearance ([2]; 1 mg/kg, 1 mpk): 3.94 mL/min/kg; half-life ([2]; 1 mg/kg, 1 mpk): 2.65 h; Vd ([2]; 1 mg/kg, 1 mpk): 0.88 L/kg
